# Assay results: patent US20030096733A1, “Novel drug targets for arthritis” (Omnio AB, priority 2001, published 2003)
# Counter-ions that a name gives are not always drawn. Residues, ends and D or L forms follow the SMILES beside them.
# B1: α2AP: single-chain glycoprotein, physiological inhibitor of plasmin (protein, UniProt P08697 40-491, looked up)
# Alpha-2-antiplasmin: NQEQVSPLTLLKLGNQEPGGQTALKSPPGVCSRDPTPEQTHRLARAMMAFTADLFSLVAQTSTCPNLILSPLSVALALSHLALGAQNHTLQRLQQVLHAGSGPCLPHLLSRLCQDLGPGAFRLAARMYLQKGFPIKEDFLEQSEQLFGAKPVSLTGKQEDDLANINQWVKEATEGKIQEFLSGLPEDTVLLLLNAIHFQGFWRNKFDPSLTQRDSFHLDEQFTVPVEMMQARTYPLRWFLLEQPEIQVAHFPFKNNMSFVVLVPTHFEWNVSQVLANLSWDTLHPPLVWERPTKVRLPKLYLKHQMDLVATLSQLGLQELFQAPDLRGISEQSLVVSGVQHQSTLELSEVGVEAAAATSIAMSRMSLSSFSVNRPFLFFIFEDTTGLPLFVGSVRNPNPSAPRELKEQQDSPGNKDFLQSLKGFPRGDKLFGPDLKLVPPMEEDYPQFGSPK
# B2: Human plasminogen: human plasminogen injected intravenously into plasminogen deficient mice to restore the serum plasminogen level (protein)
# chain: MEHKEVVLLLLLFLKSGQGEPLDDYVNTQGASLFSVTKKQLGAGSIEECAAKCEEDEEFTCRAFQYHSKEQQCVIMAENRKSSIIIRMRDVVLFEKKVYLSECKTGNGKNYRGTMSKTKNGITCQKWSSTSPHRPRFSPATHPSEGLEENYCRNPDNDPQGPWCYTTDPEKRYDYCDILECEEECMHCSGENYDGKISKTMSGLECQAWDSQSPHAHGYIPSKFPNKNLKKNYCRNPDRELRPWCFTTDPNKRWELCDIPRCTTPPPSSGPTYQCLKGTGENYRGNVAVTVSGHTCQHWSAQTPHTHNRTPENFPCKNLDENYCRNPDGKRAPWCHTTNSQVRWEYCKIPSCDSSPVSTEQLAPTAPPELTPVVQDCYHGDGQSYRGTSSTTTTGKKCQSWSSMTPHRHQKTPENYPNAGLTMNYCRNPDADKGPWCFTTDPSVRWEYCNLKKCSGTEASVVAPPPVVLLPDVETPSEEDCMFGNGKGYRGKRATTVTGTPCQDWAAQEPHRHSIFTPETNPRAGLEKNYCRNPDGDVGGPWCYTTNPRKLYDYCDVPQCAAPSFDCGKPQVEPKKCPGRVVGGCVAHPHSWPWQVSLRTRFGMHFCGGTLISPEWVLTAAHCLEKSPRPSSYKVILGAHQEVNLEPHVQEIEVSRLFLEPTRKDIALLKLSSPAVITDKVIPACLPSPNYVVADRTECFITGWGETQGTFGAGLLKEAQLPVIENKVCNRYEFLNGRVQSTELCAGHLAGGTDSCQGDSGGPLVCFEKDKYILQGVTSWGLGCARPNKPGVYVRVSRFVTWIEGVMRNN
# What was measured:
# [1] = target: T1, plasmin (Homo sapiens, UniProt P00747); conditions: chromogenic substrate; cited from earlier work
# T1 construct: After the cleavage, plasmin is an active two-chain disulfide linked molecule
# [2] = target: human uPA (Homo sapiens, UniProt P00749); conditions: read-out: Km for human uPA; chromogenic substrate; cited from earlier work
# [3] = system: CIA-sensitive mice; test: Aprotinin treatment of CIA-sensitive mice, arthritis induced by monoclonal antibodies C1 and M2139; assay type: in vivo; conditions: 0.5 mL aprotinin w/o emulsion i.p. every 72 hours; monoclonal antibody induction
# Description: (§1) To test potential drug candidates, arthritis is induced in CIA-sensitive mice either by immunization with collagen type II (CIA) or, alternatively, by use of monoclonal antibodies.
# Using monoclonal antibodies to induce CIA has an advantage in that it allows for better control of the induction.
# (§2) The present example describes treatment of CIA-sensitive mice with aprotinin (Trasylol; Bayer). Trasylol is an inhibitor of plasmin and thereby, according to the invention, a candidate drug for treating arthritis.
# (§3) Since aprotinin has a rather short half life in mice, a sustained release system for Trasylol is used. An exemplary system based on water/oil (w/o) emulsions where aprotinin is incorporated is described in detail by Bjerregaard et al. (Journal of Controlled release 2001; 71:87-98).
# The mice are injected intraperitoneally with 0.5 mL aprotinin emulsion, containing 30% w/w disperse phase with 87 mg aprotinin per ml aqueous phase (corresponding to a dose of approximately 85,000 KIU (“kallikrein-inactivator units”) aprotinin, using a Hamilton syringe 21 G needle. (It is also possible to carry out controlled administration of aprotinin via an osmotic pump.) The injection is repeated every 72 hours.
# CIA induction using monoclonal antibodies. […] The development of arthritis is evaluated with the clinical grading system described in Example 1. […]
# [4] = system: CIA-sensitive mice; test: Aprotinin treatment of CIA-sensitive mice, arthritis induced by rat collagen II; assay type: in vivo; conditions: 0.5 ml aprotinin w/o emulsion i.p. every 72 hr; collagen II induction
# Description: as §1, §2, §3
# CIA induction using Collagen-II. Collagen-induced arthritis (CIA) is induced in mice with Rat collagen II, which is prepared from the Swarm chondrosarcoma after pepsin digestion, as previously described (Andersson and Holmdahl, Eur J Immunol 1990;20:1061-1066). Collagen II is dissolved at a concentration of 2 mg/ml in 0.1 M acetic acid and stored at 4° C. Arthritis is induced by intrademal injection at the basis of the tail with […] of […] rat collagen II emulsified with an equal volume of complete Freund's adjuvant (CFA, with Mycobacterium butyricum; Difco, Detroit, Mich.). […]
# [5] = cited from earlier work
# [6] = target: T1, plasmin; conditions: cited from earlier work
# [7] = system: plasminogen deficient mice; test: Restoration of plasminogen in plasminogen deficient mice, arthritis induced by collagen II monoclonal antibody cocktail; assay type: in vivo
# Protocol: Induction of arthritis using monoclonal antibodies directed against collagen type II. A battery of monoclonal antibodies against collagen type II were produced by standard procedures. Induction of arthritis was performed by intravenous injection of a cocktail of two antibodies denoted C1 and M2139 at day 0. Five days later (day 5), lipopolysacchride was injected intraperitoneally to enhance the immune response. The development of arthritis was evaluated with a previously described clinical grading system.
# Clinical grading evaluation of arthritis. The development of arthritis was tracked using a scoring system which defines one inflamed toe or knuckle as 1 point and one inflamed wrist or ankle as […], resulting in a score of 0-15 points for each paw and 0-60 points per mouse. Deformed or swollen without redness is not included in this system.
# Induction of arthritis in plasminogen deficient mice by restoration of plasminogen. 100 μl of human plasminogen, at a concentration of 10 mg/ml, was injected intravenously into the plasminogen deficient mice every 24 hours in order to restore the serum plasminogen level. 12 hours after the first injection of plasminogen, three groups of mice, plg-wildtype, plg-heterozygous, plg-deficient were again injected with plasminogen before arthritis was induced using the Collagen II monoclonal antibody cocktails as described above. The development of arthritis was followed by the clinical scoring system.
molecule,measurement,setting,value
"CC(C)C[C@H](NC(=O)[C@H](N)C(C)C)C(=O)N[C@@H](CCCCN)C(=O)Nc1ccc([N+](=O)[O-])cc1 [S-2251, H-D-Valyl-L-leucyl-L-lysine-p-nitroaniline dihydrochloride] (HELM PEPTIDE1{[dV].L.K.[O=[N+]([O-])c1ccc(N[*:1])cc1]}$$$$V2.0)",Km,[1],300 µM
L-pyroglutamyl-glycyl-L-arginine-p-nitroaniline hydrochloride [S-2444],Km,[2],90 µM
aprotinin,incidence of the CIA vs control mice,[3],lower
same,severity of the CIA vs control mice,[3],lower
same,incidence of the CIA vs control mice,[4],lower
same,severity of the CIA vs control mice,[4],lower
same,half life in mice,[5],rather short
B1,second-order rate constant of inhibition of plasmin,[6],above 10^7 M^−1s^−1
B2,plasminogen deficient mice that developed joint inflammation,"[7]; five days after the cocktail injection, human plasminogen injected 12 hours before challenge",3 out of 4
same,Arthritic score,"[7]; plg −/− mice, human plasminogen i.v. every 24 hours, anti-collagen II monoclonal antibody cocktail, clinical score 0-60 points per mouse",6.7 ± 2.9
same,Incidence of RA,"[7]; plg −/− mice, human plasminogen i.v. every 24 hours, anti-collagen II monoclonal antibody cocktail, mice affected/total",3/4
